The values that follow are results of earlier work, collected in patent US20070026383A1, “Methods and compositions for extracting membrane proteins” (Quintessence Biosciences, Inc., priority 2005, published 2007).

Assay in data set [1]: not given
This is another data set of the same source.

As to `CCc1c2c(nc3ccc(OC(=O)N4CCC(N)CC4)cc13)-c1cc3c(c(=O)n1C2)COC(=O)[C@]3(O)CC` [NPC, 7-ethyl-10-(4-amino-1-piperidino)carbonyloxycamptothecin], the “antitumor activity in vitro” value is “weak antitumor activity”.

Consider `CCc1c2c(nc3ccc(OC(=O)N4CCC(NCCCCC(=O)O)CC4)cc13)-c1cc3c(c(=O)n1C2)COC(=O)C3(O)CC` (centres unmarked) [APC, 7-ethyl-10[4-N-(5-aminopentanoic acid)-1piperidino]carbonyloxycamptothecin], for which the “antitumor activity in vitro” value is on record as “weak antitumor activity”. In addition, the “fold weaker antitumor activity compared with SN-38” value in data set [1] (relative to SN-38) is given as 500 fold.

In the case of `CCc1c2c(nc3ccc(O)cc13)-c1cc3c(c(=O)n1C2)COC(=O)[C@]3(O)CC` [SN-38, 7-ethyl-10-hydroxycamptothecin], the “fold higher antitumor activity than Irinotecan” value in data set [1] (relative to Irinotecan) is reported as 100-1,000 fold.

Take `CCc1c2c(nc3ccc(O[C@@H]4O[C@H](C(=O)O)[C@@H](O)[C@H](O)[C@H]4O)cc13)-c1cc3c(c(=O)n1C2)COC(=O)[C@]3(O)CC` [SN-38G, 10-O-glucuronyl-SN-38]: in data set [1] (glucuronide of SN-38), the activity of metabolite result was “inactive”.
